Here are results for one compound from ChEMBL document CHEMBL3102801, “Synthesis and antiproliferative activity of new derivatives containing the polycyclic system 5,7:7,13-dimethanopyrazolo[3,4-b]pyrazolo[3',4':2,3]azepino[4,5-f]azocine” (Eur J Med Chem, 2014).

Common to all, as to format: functional
One experiment deals with NCI-H23. Put plainly: Growth inhibition of human NCI-H23 cells after 48 hrs by sulforhodamine B assay. As to conditions: NCI-H23, 48 h.
Experiment [1] can be described thus: Growth inhibition of human HCC2998 cells after 48 hrs by sulforhodamine B assay. To be noted: HCC 2998, 48 h. (Sulforhodamine B stains cellular protein and so reports cell mass.)
The subject of the next experiment is U-251. The experiment is described as follows: Growth inhibition of human U251 cells after 48 hrs by sulforhodamine B assay. As to conditions: U-251, 48 h.
For experiment [2], the system named is MDA-MB-231. Put plainly: Cell cycle arrest in human MDA-MB-231 cells assessed as accumulation of sub-G0-G1 phase at 10 uM after 48 hrs using propidium iodide staining by flow cytometric analysis (reference value: 8.4%). On the technique in general: Flow cytometry measures light scatter and fluorescence of single cells or particles in a stream.
The test system of experiment [3] is MDA-MB-231. Put plainly: Cell cycle arrest in human MDA-MB-231 cells assessed as accumulation of sub-G0-G1 phase at 5 uM after 48 hrs using propidium iodide staining by flow cytometric analysis (reference value: 8.4%).
In another experiment the test system is T47D. The experiment is described as follows: Growth inhibition of human T47D cells after 48 hrs by sulforhodamine B assay.
Another experiment deals with HCT-116. The experiment is described as follows: Growth inhibition of human HCT116 cells after 48 hrs by sulforhodamine B assay. As to conditions: HCT-116, 48 h.
The test system of another experiment is MOLT-4. The experiment is described as follows: Growth inhibition of human MOLT4 cells after 48 hrs by sulforhodamine B assay. To be noted: MOLT-4, 48 h.
The test system of another experiment is MDA-MB-435. The experiment is described as follows: Growth inhibition of human MDA-MB-435 cells after 48 hrs by sulforhodamine B assay. As to conditions: MDA-MB-435, 48 h.
The next experiment relates to 786-0. The experiment is described as follows: Growth inhibition of human 786-0 cells after 48 hrs by sulforhodamine B assay. To be noted: 786-0, 48 h.

The term GI50 denotes the concentration that inhibits growth by half. Low readings indicate greater sensitivity of the cells, high ones lower sensitivity of the cells. As to `C=C1c2c(C)nn(-c3ccc(OC)cc3)c2N(C)C23CC1C1(C)c4c(C)nn(-c5ccc(OC)cc5)c4N(C)C(C)(CC12)C3` (stereo not given), the GI50 stood at 3.86 µM in the experiment on NCI-H23; 4.07 µM in experiment [1]; 2.67 µM in the experiment with U-251; 1.81 µM in the experiment with T47D; 2.82 µM in the experiment with HCT-116; 2.6 µM with MOLT-4. The GI50 was 3.4 µM in the experiment with MDA-MB-435 and 4.23 µM in the experiment on 786-0. Also, the Activity is listed as 4.6% with MDA-MB-231 [2] and 11.5% with MDA-MB-231 [3].
